Read-outs that look alike come from different tables or passages of the source.
Columns and labels:
[1] = cited from earlier work
[2] = oral; cited from earlier work
[3] = Solubility of the drug substance in water, solvents or simulated GI media; format: physicochemical
Leishmania = settings: visceral leishmaniasis, IV therapy; cited from earlier work

## Clc1ccc(COC(Cn2ccnc2)c2ccc(Cl)cc2Cl)cc1 (centres unmarked) [econazole]
[1]; ethanol
  Solubility in ethanol: ≤ 20000 µg/mL
[1]; water, 19-66° F.
  Solubility in water: < 1000 µg/mL

## C[C@@H]1[C@H](O)[C@@H](C)/C=C/C=C/C=C/C=C/C=C/C=C/C=C/[C@H](O[C@@H]2O[C@H](C)[C@@H](O)[C@H](N)[C@@H]2O)C[C@@H]2O[C@](O)(C[C@@H](O)C[C@@H](O)[C@H](O)CC[C@@H](O)C[C@@H](O)CC(=O)O[C@H]1C)C[C@H](O)[C@H]2C(=O)O (relative stereo) [amphotericin B, [1R-(1R*,3S*,5R*,6R*,9R*,11R*,15S*,16R*,17R*,18S*,19E,21E,23E,25E,27E,29E,31E,33R*,35S*,36R*,37S,)]-33-[(3-amino-3,6-dideoxy-β-D-mannopyranosyl)oxy]1,3,5,6,9,11,17,37-octahydroxy-15,16,18-trimethyl-13-oxo-14,39-dioxabicyclo-[33.3.1]nonatriaconta-19,21,23,25,27,29,31-heptaene-36-carboxylic acid]
[2]
  Bioavailability: negligible
[3]; aqueous solution (pH 7)
  AmpB solubility in aqueous solution: negligible
[3]; simulated gastric and intestinal fluids
  Solubility of AmpB neat powder in simulated GI media: not soluble
Leishmania
  Cure rate: 97%
[1]; water
  Solubility of crystalline substance in water: insoluble

## CC(=O)O[C@@]12CO[C@@H]1C[C@H](O)[C@@]1(C)C(=O)[C@H](O)C3=C(C)[C@@H](OC(=O)[C@H](O)[C@@H](NC(=O)OC(C)(C)C)c4ccccc4)C[C@@](O)([C@@H](OC(=O)c4ccccc4)[C@H]21)C3(C)C [docetaxel]
[1]; water
  Solubility in water: 10 to 25 µg/mL

From patent US8592382B2, “Formulations for the oral administration of therapeutic agents and related methods” (The University of British Columbia, priority 2007, dated 2013)
